According to ChEMBL document CHEMBL1201862, “PubChem BioAssay data set” (2004):
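Interpolation was linear, between the two tested concentrations surrounding the appropriate level; five concentrations were tested over 48 hours in 96-well plates. Abbreviation: GI50, concentration required for 50% inhibition of growth.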 Calls of active or inactive are those of the source. No stated cut-off is given here; in the data, active = GI50 up to about 1.1 µM and inactive = higher.

Key:
Assay in all cases: growth of human tumour cells (NCI), 48 h
786-0 = tested on: 786-0
A498 = tested on: A498
A549 = tested on: A549
ACHN = tested on: ACHN
BT-549 = tested on: BT-549
CAKI-1 = tested on: CAKI-1
CCRF-CEM = tested on: CCRF-CEM
COLO 205 = tested on: COLO 205
DU-145 = tested on: DU-145
EKVX = tested on: EKVX
HCC 2998 = tested on: HCC 2998
HCT-116 = tested on: HCT-116
HCT-15 = tested on: HCT-15
HL-60 = tested on: HL-60
HOP-62 = tested on: HOP-62
HOP-92 = tested on: HOP-92
HT-29 = tested on: HT-29
Hs-578T = tested on: Hs-578T
IGROV-1 = tested on: IGROV-1
K562 = tested on: K562
KM12 = tested on: KM12
LOX IMVI = tested on: LOX IMVI
M14 = tested on: M14
MCF7 = tested on: MCF7
MDA-MB-231 = tested on: MDA-MB-231
MDA-MB-435 = tested on: MDA-MB-435
MDA-N = tested on: MDA-N
MOLT-4 = tested on: MOLT-4
Malme-3M = tested on: Malme-3M
NCI-H226 = tested on: NCI-H226
NCI-H23 = tested on: NCI-H23
NCI-H460 = tested on: NCI-H460
NCI-H522 = tested on: NCI-H522
NCI/ADR-RES = tested on: NCI/ADR-RES
OVCAR-3 = tested on: OVCAR-3
OVCAR-4 = tested on: OVCAR-4
OVCAR-5 = tested on: OVCAR-5
OVCAR-8 = tested on: OVCAR-8
PC-3 = tested on: PC-3
RPMI-8226 = tested on: RPMI-8226
RXF 393 = tested on: RXF 393
SF-268 = tested on: SF-268
SF-295 = tested on: SF-295
SF-539 = tested on: SF-539
SK-MEL-28 = tested on: SK-MEL-28
SK-MEL-2 = tested on: SK-MEL-2
SK-MEL-5 = tested on: SK-MEL-5
SK-OV-3 = tested on: SK-OV-3
SN12C = tested on: SN12C
SNB-19 = tested on: SNB-19
SNB-75 = tested on: SNB-75
SR = tested on: SR
SW-620 = tested on: SW-620
T47D = tested on: T47D
TK-10 = tested on: TK-10
U-251 = tested on: U-251
UACC-257 = tested on: UACC-257
UACC-62 = tested on: UACC-62
UO-31 = tested on: UO-31

`O=c1[nH]c2cc(Cl)ccc2nc1/C(=N/Nc1ccccc1)C(O)c1ccco1` (stereo not drawn) was tested, and the GI50 (786-0) was > 100 µM (inactive), the GI50 (A498) was > 100 µM (inactive) and the GI50 (A549) was > 100 µM (inactive). The GI50 (ACHN) was > 100 µM (inactive), the GI50 (BT-549) was > 100 µM (inactive) and the GI50 (CAKI-1) was > 100 µM (inactive). For the same molecule, the GI50 (CCRF-CEM) was > 100 µM (inactive), the GI50 (COLO 205) was > 100 µM (inactive) and the GI50 (DU-145) was > 100 µM (inactive). For the same molecule, the GI50 (EKVX) was > 100 µM (inactive), the GI50 (HCC 2998) was > 100 µM (inactive) and the GI50 (HCT-116) was > 100 µM (inactive). For the same molecule, the GI50 (HCT-15) was > 100 µM, the GI50 (HL-60) was > 100 µM (inactive) and the GI50 (HOP-62) was > 100 µM (inactive). For the same molecule, the GI50 (HOP-92) was > 100 µM (inactive), the GI50 (HT-29) was > 100 µM (inactive) and the GI50 (Hs-578T) was > 100 µM (inactive). The GI50 (IGROV-1) was > 100 µM (inactive), the GI50 (K562) was > 100 µM (inactive) and the GI50 (KM12) was > 100 µM (inactive). The GI50 (LOX IMVI) was > 100 µM (inactive), the GI50 (M14) was > 100 µM (inactive) and the GI50 (MCF7) was > 100 µM (inactive). For the same molecule, the GI50 (MDA-MB-231) was > 100 µM (inactive), the GI50 (MDA-MB-435) was > 100 µM (inactive) and the GI50 (MDA-N) was > 100 µM (inactive). The GI50 (MOLT-4) was > 100 µM (inactive), the GI50 (Malme-3M) was > 100 µM (inactive) and the GI50 (NCI-H226) was > 100 µM (inactive). For the same molecule, the GI50 (NCI-H23) was > 100 µM (inactive), the GI50 (NCI-H460) was > 100 µM (inactive) and the GI50 (NCI-H522) was > 100 µM (inactive). The GI50 (NCI/ADR-RES) was > 100 µM (inactive), the GI50 (OVCAR-3) was > 100 µM (inactive) and the GI50 (OVCAR-4) was > 100 µM (inactive). The GI50 (OVCAR-5) was > 100 µM (inactive), the GI50 (OVCAR-8) was > 100 µM (inactive) and the GI50 (PC-3) was > 100 µM (inactive). For the same molecule, the GI50 (RPMI-8226) was > 100 µM (inactive), the GI50 (RXF 393) was > 100 µM (inactive) and the GI50 (SF-268) was > 100 µM (inactive). For the same molecule, the GI50 (SF-295) was > 100 µM (inactive), the GI50 (SF-539) was > 100 µM (inactive) and the GI50 (SK-MEL-28) was > 100 µM (inactive). The GI50 (SK-MEL-2) was > 100 µM (inactive), the GI50 (SK-MEL-5) was > 100 µM (inactive) and the GI50 (SK-OV-3) was > 100 µM (inactive). The GI50 (SN12C) was > 100 µM (inactive), the GI50 (SNB-19) was > 100 µM (inactive) and the GI50 (SNB-75) was > 100 µM (inactive). The GI50 (SR) was > 100 µM (inactive), the GI50 (SW-620) was > 100 µM (inactive) and the GI50 (T47D) was > 100 µM (inactive). For the same molecule, the GI50 (TK-10) was > 100 µM (inactive), the GI50 (U-251) was > 100 µM (inactive) and the GI50 (UACC-257) was > 100 µM (inactive). The GI50 (UACC-62) was > 100 µM (inactive) and the GI50 (UO-31) was > 100 µM (inactive).
For `C=CC1C(OC2OC(CO)C(O)C(O)C2O)OC=C(C(=O)OC)C1CC1CC(=O)CC(CCc2ccc(O)cc2)O1` (stereo not drawn), the GI50 (786-0) was > 100 µM (inactive), the GI50 (A498) was > 100 µM (inactive) and the GI50 (A549) was > 100 µM (inactive). The GI50 (ACHN) was > 100 µM (inactive), the GI50 (BT-549) was > 100 µM (inactive) and the GI50 (CAKI-1) was > 100 µM (inactive). The GI50 (CCRF-CEM) was > 100 µM (inactive), the GI50 (COLO 205) was > 100 µM (inactive) and the GI50 (DU-145) was > 100 µM (inactive). For the same molecule, the GI50 (EKVX) was > 100 µM (inactive), the GI50 (HCC 2998) was > 100 µM (inactive) and the GI50 (HCT-116) was > 100 µM (inactive). The GI50 (HCT-15) was > 100 µM, the GI50 (HL-60) was > 100 µM (inactive) and the GI50 (HOP-62) was > 100 µM (inactive). The GI50 (HOP-92) was > 100 µM (inactive), the GI50 (HT-29) was > 100 µM (inactive) and the GI50 (Hs-578T) was > 100 µM (inactive). For the same molecule, the GI50 (IGROV-1) was > 100 µM (inactive), the GI50 (K562) was > 100 µM (inactive) and the GI50 (KM12) was > 100 µM (inactive). The GI50 (LOX IMVI) was > 100 µM (inactive), the GI50 (M14) was > 100 µM (inactive) and the GI50 (MCF7) was > 100 µM (inactive). The GI50 (MDA-MB-231) was > 100 µM (inactive), the GI50 (MDA-MB-435) was > 100 µM (inactive) and the GI50 (MDA-N) was > 100 µM (inactive). For the same molecule, the GI50 (MOLT-4) was > 100 µM (inactive), the GI50 (Malme-3M) was > 100 µM (inactive) and the GI50 (NCI-H226) was > 100 µM (inactive). The GI50 (NCI-H23) was > 100 µM (inactive), the GI50 (NCI-H460) was > 100 µM (inactive) and the GI50 (NCI-H522) was > 100 µM (inactive). The GI50 (NCI/ADR-RES) was > 100 µM (inactive), the GI50 (OVCAR-3) was > 100 µM (inactive) and the GI50 (OVCAR-4) was > 100 µM (inactive). The GI50 (OVCAR-5) was > 100 µM (inactive), the GI50 (OVCAR-8) was > 100 µM (inactive) and the GI50 (PC-3) was > 100 µM (inactive). The GI50 (RPMI-8226) was > 100 µM (inactive), the GI50 (RXF 393) was > 100 µM (inactive) and the GI50 (SF-268) was > 100 µM (inactive). The GI50 (SF-295) was > 100 µM (inactive), the GI50 (SF-539) was > 100 µM (inactive) and the GI50 (SK-MEL-28) was > 100 µM (inactive). For the same molecule, the GI50 (SK-MEL-2) was > 100 µM (inactive), the GI50 (SK-MEL-5) was > 100 µM (inactive) and the GI50 (SK-OV-3) was > 100 µM (inactive). For the same molecule, the GI50 (SN12C) was > 100 µM (inactive), the GI50 (SNB-19) was > 100 µM (inactive) and the GI50 (SNB-75) was > 100 µM (inactive). For the same molecule, the GI50 (SR) was > 100 µM (inactive), the GI50 (SW-620) was > 100 µM (inactive) and the GI50 (T47D) was > 100 µM (inactive). For the same molecule, the GI50 (TK-10) was > 100 µM (inactive), the GI50 (U-251) was > 100 µM (inactive) and the GI50 (UACC-257) was > 100 µM (inactive). For the same molecule, the GI50 (UACC-62) was > 100 µM (inactive) and the GI50 (UO-31) was > 100 µM (inactive).
